Key:
[1] = molecular target: NAMPT (human, recombinant, C-terminally His-tagged) (Homo sapiens, UniProt P43490); experiment: Time-Resolved Fluorescence Resonance Energy Transfer (TR-FRET) Binding Assay of NAMPT; conditions: without substrates; 6.8 nM NAMPT, 200 nM probe, 3 hours equilibration
Method in brief: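 Read-out is the time-resolved FRET ratio Em520/Em495 (excitation 337 nm) between a terbium anti-His antibody (1 nM) on the enzyme and an Oregon Green 488-labelled nicotinamide-competitive inhibitor probe (200 nM). Enzyme was 6.8 nM, DMSO 2%, pH 7.5 HEPES buffer; 3 h room-temperature equilibration preceded reading.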

NAMPT = NAMPT (Homo sapiens, UniProt P43490); experiment: TR-FRET Binding Assay of NAMPT with PRPP; conditions: with 200 μM PRPP and 2.5 mM ATP; 2 nM NAMPT, 2 nM probe, 16 hours equilibration
NAMPT, sequence (P43490 whole entry): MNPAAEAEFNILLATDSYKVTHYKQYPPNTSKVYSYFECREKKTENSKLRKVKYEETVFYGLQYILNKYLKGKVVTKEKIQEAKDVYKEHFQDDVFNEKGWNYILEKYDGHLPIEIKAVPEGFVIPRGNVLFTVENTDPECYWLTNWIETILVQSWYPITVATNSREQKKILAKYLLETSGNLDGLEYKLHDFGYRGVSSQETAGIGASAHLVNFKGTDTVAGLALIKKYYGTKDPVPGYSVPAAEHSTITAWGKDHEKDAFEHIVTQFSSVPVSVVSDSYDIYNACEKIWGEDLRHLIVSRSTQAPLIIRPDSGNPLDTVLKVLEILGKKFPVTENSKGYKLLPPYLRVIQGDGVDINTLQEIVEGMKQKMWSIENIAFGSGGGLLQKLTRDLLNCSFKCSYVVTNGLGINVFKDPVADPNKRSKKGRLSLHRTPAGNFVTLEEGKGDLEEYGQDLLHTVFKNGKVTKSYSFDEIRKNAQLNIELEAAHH
Method in brief: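 NAMPT 2 nM + probe 2 nM + Tb-anti-His Ab 1 nM; PRPP 200 μM, ATP 2.5 mM, DMSO 2%; 16 h equilibration before TR-FRET read.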

PC3 cells = experiment: NAMPT Cell Proliferation Assay; type: cell-based; conditions: Homo sapiens, PC-3, 120 h, 5 days incubation, cell viability by Cell Titer Glo
Method in brief: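 Seed PC3 at 500 cells/well (RPMI, 10% HI-FBS), attach overnight; add compound, 10-fold series 10 μM → 1×10^−5 μM; incubate 5 d, 37° C/5% CO2; luminescent viability readout; fit % inhibition sigmoidally for IC50.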

NAMPT (human, recombinant, C-terminally His-tagged), sequence (P43490 whole entry): as above

SMILES	IC50 [1] [µM]	IC50 (NAMPT) [µM]	IC50 (PC3 cells) [µM]
O=C(NCc1ccc2nccn2c1)c1ccc(C2=CCN(C(=O)C3CCOCC3)CC2)cc1 [Example 101, N-(imidazo[1,2-a]pyridin-6-ylmethyl)-4-[1-(tetrahydro-2H-pyran-4-ylcarbonyl)-1,2,3,6-tetrahydropyridin-4-yl]benzamide]	0.332	0.00173	0.00244
O=C(NCc1ccc2nccn2c1)c1ccc(C2=CCN(C(=O)C3COCCO3)CC2)cc1 (stereo not drawn) [Example 102, 4-[1-(1,4-dioxan-2-ylcarbonyl)-1,2,3,6-tetrahydropyridin-4-yl]-N-(imidazo[1,2-a]pyridin-6-ylmethyl)benzamide]	0.385	0.00121	0.013
COCCOCC(=O)N1CC=C(c2ccc(C(=O)NCc3ccc4nccn4c3)cc2)CC1 [Example 103, N-(imidazo[1,2-a]pyridin-6-ylmethyl)-4-{1-[(2-methoxyethoxy)acetyl]-1,2,3,6-tetrahydropyridin-4-yl}benzamide]	0.84	0.00144	0.0621
O=C(NCc1ccc2nccn2c1)c1cnc(N2CCc3ccccc3C2)s1 [Example 108, 2-(3,4-dihydroisoquinolin-2(1H)-yl)-N-(imidazo[1,2-a]pyridin-6-ylmethyl)-1,3-thiazole-5-carboxamide]	1.77	0.00105	7.66
O=C(Nc1ccc(C2CCN(C(=O)C3CCOCC3)CC2)cc1)Nc1ccc2nccn2c1 [Example 109, 1-imidazo[1,2-a]pyridin-6-yl-3-{4-[1-(tetrahydro-2H-pyran-4-ylcarbonyl)piperidin-4-yl]phenyl}urea]	0.34	0.000209	0.0522
O=C(Nc1ccc(C2CCN(C(=O)CC3CCOC3)CC2)cc1)Nc1ccc2nccn2c1 (stereo not drawn) [Example 110, 1-imidazo[1,2-a]pyridin-6-yl-3-{4-[1-(tetrahydrofuran-3-ylacetyl)piperidin-4-yl]phenyl}urea]	0.423	0.000174	0.202
O=C(Nc1ccc(C2CCN(C(=O)C3CCCO3)CC2)cc1)Nc1ccc2nccn2c1 (stereo not drawn) [Example 113, 1-imidazo[1,2-a]pyridin-6-yl-3-{4-[1-(tetrahydrofuran-2-ylcarbonyl)piperidin-4-yl]phenyl}urea]	0.356	0.000169	0.0933
CC(C)(C)OC(=O)N1CCC(Oc2ccc(C(=O)NCc3ccc4nccn4c3)cc2)CC1 [Example 114, tert-butyl 4-{4-[(imidazo[1,2-a]pyridin-6-ylmethyl)carbamoyl]phenoxy}piperidine-1-carboxylate]	0.818	0.00111	0.142
O=C(NCc1ccc2nccn2c1)c1cnc(N2C(=O)OCC2C2CCOC2)s1 (stereo not drawn) [Example 116, N-(imidazo[1,2-a]pyridin-6-ylmethyl)-2-[2-oxo-4-(tetrahydrofuran-3-yl)-1,3-oxazolidin-3-yl]-1,3-thiazole-5-carboxamide]	0.863	0.00069	0.0613
O=C(CC1CCCC1)Nc1ccc(C(=O)NCc2ccn3ccnc3c2)cc1 [Example 117, 4-[(cyclopentylacetyl)amino]-N-(imidazo[1,2-a]pyridin-7-ylmethyl)benzamide]	0.392	0.000436	0.0639
CC(C)Cn1cc(-c2ccc(C(=O)NCc3ccc4nccn4c3)cc2)cn1 [Example 119, N-(imidazo[1,2-a]pyridin-6-ylmethyl)-4-[1-(2-methylpropyl)-1H-pyrazol-4-yl]benzamide]	0.942	0.000783	0.146
COCCC(=O)N(CC1CCCO1)c1ncc(C(=O)NCc2ccn3ccnc3c2)s1 (stereo not drawn) [Example 121, N-(imidazo[1,2-a]pyridin-7-ylmethyl)-2-[(3-methoxypropanoyl)(tetrahydrofuran-2-ylmethyl)amino]-1,3-thiazole-5-carboxamide]	0.486	0.000234	0.00391

Compounds with a lower IC50 [1], results first:

IC50 [1] [µM]	IC50 (NAMPT) [µM]	IC50 (PC3 cells) [µM]	SMILES
0.263	0.000209	0.0755	O=C(Nc1ccc(C2CCN(C(=O)CC3CCCO3)CC2)cc1)Nc1ccc2nccn2c1 (stereo not drawn) [Example 111, 1-imidazo[1,2-a]pyridin-6-yl-3-{4-[1-(tetrahydrofuran-2-ylacetyl)piperidin-4-yl]phenyl}urea]
0.255	0.00476	0.172	O=C(NCc1ccc2nccn2c1)c1cnc(N2CC(c3ccccc3)OC2=O)s1 (stereo not drawn) [Example 122, N-(imidazo[1,2-a]pyridin-6-ylmethyl)-2-(2-oxo-5-phenyl-1,3-oxazolidin-3-yl)-1,3-thiazole-5-carboxamide]
0.247	0.000201	0.0787	CC(C)C(=O)N1CCC(c2ccc(NC(=O)Nc3ccc4nccn4c3)cc2)CC1 [Example 106, 1-imidazo[1,2-a]pyridin-6-yl-3-{4-[1-(2-methylpropanoyl)piperidin-4-yl]phenyl}urea]
0.243	0.000676	0.00638	CC(C)OCCNC(=O)N(CC1CCCO1)c1ncc(C(=O)NCc2ccc3nccn3c2)s1 (stereo not drawn) [Example 115, N-(imidazo[1,2-a]pyridin-6-ylmethyl)-2-[{[2-(propan-2-yloxy)ethyl]carbamoyl}(tetrahydrofuran-2-ylmethyl)amino]-1,3-thiazole-5-carboxamide]
0.135	0.002	0.00846	O=C(NCc1ccc2nccn2c1)c1ccc(C2=CCN(C(=O)c3ccccc3)CC2)cc1 [Example 104, 4-(1-benzoyl-1,2,3,6-tetrahydropyridin-4-yl)-N-(imidazo[1,2-a]pyridin-6-ylmethyl)benzamide]
0.106	0.000476	0.00661	O=C(NCc1ccc2nccn2c1)c1ccc(C2=CCN(C(=O)C3CCC(F)(F)CC3)CC2)cc1 [Example 105, 4-{1-[(4,4-difluorocyclohexyl)carbonyl]-1,2,3,6-tetrahydropyridin-4-yl}-N-(imidazo[1,2-a]pyridin-6-ylmethyl)benzamide]
0.0739	0.000367	0.0908	CC(C)Cn1cc(-c2ccc(C(=O)NCc3ccc4nccn4c3)o2)cn1 [Example 120, N-(imidazo[1,2-a]pyridin-6-ylmethyl)-5-[1-(2-methylpropyl)-1H-pyrazol-4-yl]furan-2-carboxamide]
0.0465	0.000169	0.00696	O=C(Nc1ccc(C2CCN(C(=O)c3ccccc3)CC2)cc1)Nc1ccc2nccn2c1 [Example 112, 1-[4-(1-benzoylpiperidin-4-yl)phenyl]-3-imidazo[1,2-a]pyridin-6-ylurea]
0.0451	0.000492	0.0108	O=C(NCCCCC1CCN(C(=O)c2ccccc2)CC1)Nc1ccc2nccn2c1 [Example 107, 1-[4-(1-benzoylpiperidin-4-yl)butyl]-3-imidazo[1,2-a]pyridin-6-ylurea]
0.0352	0.000234	0.0182	O=C(CC1CCCC1)Nc1ccc(NC(=O)NCc2ccn3ccnc3c2)cc1 [Example 118, 2-cyclopentyl-N-(4-{[(imidazo[1,2-a]pyridin-7-ylmethyl)carbamoyl]amino}phenyl)acetamide]

— patent publication US9187472B2 (AbbVie Inc., priority 2012, dated 2015)
